The values that follow come from ChEMBL document CHEMBL1201862, “PubChem BioAssay data set” (2004).

Where a name gives a salt, the structure may show the parent alone.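 Cells were grown in 96-well plates and exposed to each compound for 48 hours at five concentrations; endpoints were interpolated linearly between bracketing concentrations, or set to the highest concentration if not reached. GI50 marks 50% less growth.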 Activity calls are given as the source filed them. Rule as the data show it: active = GI50 up to about 1.1 µM and inactive = higher.

Common to all, as to experiment: NCI tumour cell line growth inhibition, 48 h
The test system of assay [1] is ACHN.
For assay [2], the system named is CAKI-1.
For assay [3], the system named is EKVX.
Assay [4] deals with HOP-92.
Assay [5] relates to K562.
The subject of assay [6] is KM12.
The subject of assay [7] is LOX IMVI.
Assay [8] concerns NCI-H226.
Assay [9] has as its system NCI-H460.
The test system of assay [10] is OVCAR-3.
Assay [11] relates to OVCAR-8.
In assay [12] the test system is RPMI-8226.
Assay [13] concerns SF-295.
Assay [14] has as its system SK-OV-3.
Assay [15] has as its system SNB-19.
For assay [16], the system named is SR.
The test system of assay [17] is SW-620.
Assay [18] relates to UO-31.
Assay [19] has as its system RXF 393.

Regarding `Cc1ccc(S(=O)(=O)N/N=C2/CC3CCC4CC2CC34)cc1` (stereo not given), the GI50 in [1] is > 100 µM (inactive); in assay [2], > 100 µM (inactive); in assay [3], 61.5 µM (inactive); in assay [4] it was > 100 µM (inactive); in assay [5] it was 93.5 µM (inactive); in [6], > 100 µM (inactive). Also, the GI50 in assay [7], in assay [8], in [9], in [10], in [11] and in assay [12] was > 100 µM (inactive) in each case. The GI50 in assay [13] is > 100 µM (inactive); in assay [14], > 100 µM (inactive); in assay [15], > 100 µM (inactive); in assay [16] it was > 100 µM (inactive); in assay [17], > 100 µM (inactive); in assay [18], 25.4 µM (inactive).

Take `O=P(O)(O)OP(=O)(O)O`: the GI50 in assay [1], in assay [2], in assay [3], in [4], in assay [5] and in [6] was > 100 µM (inactive) throughout. Also, the GI50 in [7], in assay [9], in assay [10], in assay [11], in assay [12] and in assay [19] was > 100 µM (inactive) each time. Further, the GI50 in [14], in [15], in assay [16], in [17] and in [18] was > 100 µM (inactive) throughout.

As for `COC(=O)C(NC(=O)CSc1nnc(COc2ccc(Cl)cc2)n1-c1ccccc1)C(C)C` (stereo not given), the GI50 in [1] is 39.3 µM (inactive); in [2] it was 10.3 µM (inactive); in assay [3] it was 23 µM (inactive); in assay [4] it was 21.6 µM (inactive); in [5] it was 53.8 µM (inactive); in [6], 19.1 µM (inactive). The GI50 was 26.2 µM (inactive) in assay [7]; 17 µM (inactive) in [8]; 33.2 µM (inactive) in assay [9]; 16.5 µM (inactive) in assay [10]; 23.7 µM (inactive) in assay [11]; 24 µM (inactive) in assay [19]. In addition, the GI50 in assay [13] is 22 µM (inactive); in [14], 37.2 µM (inactive); in assay [15], 29.3 µM (inactive); in [16] it was 1.08 µM (active); in assay [17], 56.4 µM (inactive); in [18], 26.7 µM (inactive).

Take `O=C1c2ccccc2/C=C\C(c2ccccc2)=N/N1c1ccccc1Cl`: the GI50 is 26.4 µM (inactive) in assay [1]; 16.9 µM (inactive) in assay [2]; 22.5 µM (inactive) in assay [3]; 26.5 µM (inactive) in [4]; 5.26 µM (inactive) in assay [5]; 11.6 µM (inactive) in [6]. The GI50 in assay [7] was 25.1 µM (inactive); in assay [8] it was 46.8 µM (inactive); in [9] it was 28.6 µM (inactive); in assay [10], 27.5 µM (inactive); in assay [11], 27.4 µM (inactive); in assay [12], 23.7 µM (inactive). The GI50 in assay [19] is 19.2 µM (inactive); in [13] it was 26.1 µM (inactive); in [15], 19.1 µM (inactive); in assay [16] it was > 10 µM (inactive); in [17], 20.1 µM (inactive); in assay [18], 32.5 µM (inactive).

As to `COC1(C2c3ccccc3CCN2C(=O)OC(C)(C)C)C(=O)C(c2ccccc2)=C1N(C)C` (stereo not given), the GI50 in assay [1] is 33.5 µM (inactive); in assay [2], 45.7 µM (inactive); in assay [3], 40.6 µM (inactive); in assay [4] it was 44.8 µM (inactive); in assay [6], 34.4 µM (inactive); in assay [8], 19.7 µM (inactive). Further, the GI50 in [9] is 29.8 µM (inactive); in [10], 27.7 µM (inactive); in assay [11], 68.7 µM (inactive); in [19], 30.2 µM (inactive); in [13], 30.8 µM (inactive); in [14] it was 37.9 µM (inactive). Also, the GI50 is 27.5 µM (inactive) in assay [15], 79.3 µM (inactive) in assay [16], 37.8 µM (inactive) in [17] and 26.8 µM (inactive) in [18].

On to `CC(C)Cn1cnc2c(SCc3ccc(Cl)cc3Cl)nc(N)nc21`, for which the GI50 in assay [1] was 20.6 µM (inactive); in assay [2], 49 µM (inactive); in assay [3], 14.5 µM (inactive); in [4] it was 26.2 µM (inactive); in assay [5], 11.7 µM (inactive); in [6], 27.2 µM (inactive). Further, the GI50 in assay [7] was 18.7 µM (inactive); in assay [9] it was 12 µM (inactive); in assay [10], 48.5 µM (inactive); in assay [11] it was 27.7 µM (inactive); in assay [12] it was 10.1 µM (inactive); in [19], 17.9 µM (inactive). In addition, the GI50 in [13] is 23.3 µM (inactive); in [14] it was > 100 µM (inactive); in assay [15], 44.3 µM (inactive); in assay [16] it was 4.38 µM (inactive); in [17], 25.3 µM (inactive); in [18] it was 23.3 µM (inactive).

For the molecule `O=C(NCc1ccc(Cl)cc1)c1cc2sccc2nc1C(F)(F)F`, the GI50 in assay [1] is 20.6 µM (inactive); in assay [2], 31.7 µM (inactive); in assay [3], 34 µM (inactive); in assay [4], 37.7 µM (inactive); in assay [5], > 100 µM (inactive); in [6], 87.1 µM (inactive). The GI50 in [8] was 19.6 µM (inactive); in assay [10], 26.9 µM (inactive); in [11], 26.4 µM (inactive); in [12], > 100 µM (inactive); in assay [19] it was 24 µM (inactive); in [13], 28 µM (inactive). Besides, the GI50 was 34 µM (inactive) in assay [14]; 22.5 µM (inactive) in assay [15]; 39.9 µM (inactive) in assay [16]; 54.2 µM (inactive) in [17]; 30.5 µM (inactive) in [18].

Take `CCOC(=O)N/N=C(\Cc1ccc([N+](=O)[O-])cc1)OCC`: the GI50 in assay [1], in assay [3], in assay [4], in [5], in assay [6] and in assay [7] was > 100 µM (inactive) in each case. Besides, the GI50 in [10], in [11], in assay [12], in [19], in assay [13] and in [14] was > 100 µM (inactive) throughout. The GI50 in assay [15], in assay [16], in assay [17] and in [18] was > 100 µM (inactive) in each case.

In the case of `O=c1[nH]c(=O)n(COCc2ccccc2)c2ccc(Br)cc12`, the GI50 in assay [1] was 27.5 µM (inactive); in assay [2] it was > 100 µM (inactive); in assay [3], 96.8 µM (inactive); in assay [4], > 100 µM (inactive); in assay [5] it was > 100 µM (inactive); in assay [6], > 100 µM (inactive). Besides, the GI50 is > 100 µM (inactive) in assay [7]; 36.3 µM (inactive) in [8]; 89.5 µM (inactive) in assay [9]; 85.3 µM (inactive) in [10]; 90.8 µM (inactive) in assay [11]; > 100 µM (inactive) in [19]. Further, the GI50 in assay [13] is 87.7 µM (inactive); in [14], > 100 µM (inactive); in assay [15] it was 64.3 µM (inactive); in [16], > 100 µM (inactive); in [17] it was > 100 µM (inactive); in assay [18], > 100 µM (inactive).

Regarding `Cc1cc2nc(N3C(=O)/C(=C/c4ccc(N(C)C)cc4)N=C3c3ccccc3)sc2cc1C`, the GI50 in assay [1] was 19.9 µM (inactive); in [2], 43.9 µM (inactive); in [3] it was 23 µM (inactive); in assay [4], 15.2 µM (inactive); in assay [5], 25.9 µM (inactive); in [6], 26 µM (inactive). In addition, the GI50 in [7] was 30.1 µM (inactive); in assay [9], 23 µM (inactive); in [10], 41.5 µM (inactive); in [11], 32.3 µM (inactive); in assay [12], 23.8 µM (inactive); in assay [19] it was 18.5 µM (inactive). Also, the GI50 was 33.6 µM (inactive) in assay [13]; > 100 µM (inactive) in [14]; 54.6 µM (inactive) in assay [15]; 6.05 µM (inactive) in assay [16]; 24.7 µM (inactive) in [17]; 24.2 µM (inactive) in [18].

For the molecule `CCN(CC)CCNC(=O)c1cc2cc(NC(=O)c3cc4cc(N)ccc4[nH]3)ccc2[nH]1`, the GI50 in assay [1] was > 100 µM (inactive); in assay [2] it was 86.5 µM (inactive); in assay [3] it was 97.1 µM (inactive); in [4], 24 µM (inactive); in assay [5], 18.6 µM (inactive); in [6], 14.7 µM (inactive). The GI50 is 34.6 µM (inactive) in assay [9]; 32.2 µM (inactive) in [11]; 19.3 µM (inactive) in [12]; 20.3 µM (inactive) in assay [19]; > 100 µM (inactive) in assay [13]; 31.3 µM (inactive) in assay [14]. The GI50 is 49.3 µM (inactive) in assay [15], 5.9 µM (inactive) in assay [16], 33.3 µM (inactive) in [17] and > 100 µM (inactive) in [18].

As for `CN(C)CCOC(c1ccccc1)c1ccccc1` [DIPHENHYDRAMINE HYDROCHLORIDE], the GI50 in assay [1] is > 100 µM (inactive); in [2], > 100 µM (inactive); in assay [3], > 100 µM (inactive); in assay [4] it was 25 µM (inactive); in assay [5], > 100 µM (inactive); in [6], > 100 µM (inactive). Further, the GI50 was > 100 µM (inactive) in assay [7]; > 100 µM (inactive) in assay [8]; > 100 µM (inactive) in [9]; > 100 µM (inactive) in [10]; > 100 µM (inactive) in assay [11]; 84.3 µM (inactive) in assay [12]. Also, the figures for the GI50 in assay [16], in [17] and in assay [18] were 38.5 µM (inactive), > 100 µM (inactive) and > 100 µM (inactive), respectively.
